Reference: patent US4584300A, “Platelet anti-aggregative- and calcium antagonistic -1,4-benzothiazin-3-one derivatives, compositions, and methods of use therefor” (Santen Pharmaceutical Co., Ltd., priority 1983, dated 1986)
Counter-ions that a name gives are not always drawn.

System: guinea-pig teania coli
Assay: Calcium-antagonistic activity: inhibition of CaCl2-evoked contraction of isolated guinea-pig teania coli
Assay type: tissue-based
Conditions: Cavia porcellus, 5 min; 50% inhibition of Ca^++-evoked contraction; CaCl2 3×10^-4 M; 5 minutes exposure; 32° C.
Procedure: The action potentials on the smooth muscles of uterus, teania coli and portal vein are dependent on calcium ion, and therefor these smooth muscle preparations are useful for screening of calcium antagonists. We measured the calcium-antagonistic activity of the compounds by the method using guinea-pig teania coli preparation.
Isolated guinea-pig teania coli was suspended in a 20 ml organ bath with Krebs solution at 32° C. and bubbled with 5% carbon dioxide in oxygen. After equilibration, the muscle was washed with Ca^++ -free Krebs solution, and when the muscle had relaxed to basal level, it was suspended in Ca^++ -free-high-K Krebs solution.
The muscle was exposed to test compounds for 5 minutes before addition of CaCl2, and the contraction evoked by CaCl2 (3×10^-4 M) was recorded isotonically. The calcium-antagonistic activity was represented by the concentration of test compound which elicited 50% inhibition of Ca^++ -evoked contraction (IC50).

Row | IC50 [µM] | SMILES
1 | 3.8 | COc1ccc(OCC(O)CN2CCN(CC(=O)c3ccccc3)CC2)c(C2Sc3ccccc3N(C)C2=O)c1 (stereo not shown) [Compound 107, 3,4-Dihydro-2-[5-methoxy-2-[2-hydroxy-3-(4-phenacylpiperazino)propoxy]phenyl]-4-methyl-3-oxo-2H-1,4-benzothiazine dimaleate]
2 | 2.5 | COc1ccc(OCCCN(C)C)c(C2Sc3ccccc3N(C)C2=O)c1 (stereo not shown) [Compound 61]
3 | 3 | COc1ccc(OCCCCCN(C)C2CCCCC2)c(C2Sc3ccccc3N(C)C2=O)c1 (stereo not shown) [Compound 64]
4 | 2 | COc1ccc(CCN2CCN(CCCOc3ccc(C4Sc5ccccc5NC4=O)cc3)CC2)cc1OC (stereo not shown) [Compound 71]
5 | 3.9 | COc1ccc(OCCCCN2CCN(CC(=O)c3ccccc3)CC2)c(C2Sc3ccccc3N(C)C2=O)c1 (stereo not shown) [Compound 79]
6 | 2 | COc1ccc(OCCCN(C)CCc2ccc(OC)c(OC)c2)c(C2Sc3ccccc3NC2=O)c1 (stereo not shown) [Compound 59]
7 | 1.8 | COc1ccc(OCCCCN2CCC(C(=O)c3ccccc3)CC2)c(C2Sc3ccccc3N(C)C2=O)c1 (stereo not shown) [Compound 65]
8 | 2.6 | CN(C)CCCOc1ccc(C2Sc3ccccc3N(C)C2=O)cc1 (stereo not shown) [Compound 72, 3,4-Dihydro-2-[4-(3-dimethylaminopropoxy)phenyl]-4-methyl-3-oxo-2H-1,4-benzothiazine]
9 | 3 | COc1ccc(OCCCCN2CCN(CCc3cc(OC)c(OC)c(OC)c3)CC2)c(C2Sc3ccccc3NC2=O)c1 (stereo not shown) [Compound 75]
10 | 1.6 | COc1ccc(OCCCN(C)C2CCCCC2)c(C2Sc3ccccc3N(C)C2=O)c1 (stereo not shown) [Compound 62]
11 | 1.9 | CN(CCCOc1ccc(C2Sc3ccccc3NC2=O)cc1)C1CCCCC1 (stereo not shown) [Compound 68]
12 | 2.6 | COc1ccc(OCCCCCN(C)C2CCCCC2)c(C2Sc3ccccc3NC2=O)c1 (stereo not shown) [Compound 58]

Row | SMILES | IC50 [µM]
13 | COc1ccc(OCCCN2CCN(CCc3cc(OC)c(OC)c(OC)c3)CC2)c(C2Sc3ccccc3N(C)C2=O)c1 (stereo not shown) [Compound 77] | 1.6
14 | CN1C(=O)C(c2ccc(OCCCN(C)C3CCCCC3)cc2)Sc2ccccc21 (stereo not shown) [Compound 73] | 3.4

System: blood platelet (rabbit platelet rich plasma)
Assay: Anti-aggregatory activity: inhibition of collagen- or ADP-induced platelet aggregation in vitro (PRP)
Assay type: cell-based
Conditions: Oryctolagus cuniculus, 50% inhibition of control response, collagen (3 μg/ml) or ADP (3 μM), table does not say which, 37° C.
Procedure: Blood was obtained from an anesthetized rabbit using 0.1 volumes of 3.8% sodium citrate as anticoagulant. Platelet rich plasma(PRP) was isolated by centrifugation at 650 rpm for 10 minutes at room temperature. After preincubation of PRP (0.25 ml) with various concentrations of test compounds (14 μl) for 1 minute at 37° C., collagen (3 μg/ml:final concentration) or ADP (3 μM:final concentration) was added to induce aggregation and the aggregation profiles were monitored with RIKADENKI six-channel aggregometer. The control experiment contained saline instead of test compound.
The anti-aggregatory activity was represented by the concentration of test compound which elicited 50% inhibition of control response.

Row | SMILES | IC50 [µM]
15 | COc1ccc(OCCCN(C)C)c(C2Sc3ccccc3NC2=O)c1 (stereo not shown) [Compound 55, 3,4-dihydro-2-[2-(3-dimethylaminopropoxy)-5-methoxyphenyl]-3-oxo-2H-1,4-benzothiazine] | 3.2
16 | COc1ccc(OCC(O)CNC(C)(C)C)c(C2Sc3ccccc3NC2=O)c1 (stereo not shown) [Compound 105, 2-[2-(3-tert-Butylamino-2-hydroxypropoxy)-5-methoxyphenyl]-3,4-dihydro-3-oxo-2H-1,4-benzothiazine] | 1
17 | COc1ccc(OCC(O)CNC(C)(C)C)c(C2Sc3ccccc3N(C)C2=O)c1 (stereo not shown) [Compound 106] | 1.3
18 | COc1ccc(OCCCCN(C)C2CCCCC2)c(C2Sc3ccccc3NC2=O)c1 (stereo not shown) [Compound 57] | 3.2
19 | COc1ccc(OCCCN(C)C)c(C2Sc3ccccc3N(CCCN(C)C)C2=O)c1 (stereo not shown) [Compound 82, 3,4-Dihydro-2-[2-(3-dimethylaminopropoxy)-5-methoxyphenyl]-4-(3-dimethylaminopropyl)-3-oxo-2H-1,4-benzothiazine dioxalate] | 3.2
20 | COc1ccc(OCCCCN2CCN(CCc3cc(OC)c(OC)c(OC)c3)CC2)c(C2Sc3ccccc3N(C)C2=O)c1 (stereo not shown) [Compound 78] | 3.5
21 | CN(C)CCCOc1ccc(C2Sc3ccccc3NC2=O)cc1 (stereo not shown) [Compound 67] | 1.6
22 | COc1ccc(OCCCCN(C)C2CCCCC2)c(C2Sc3ccccc3N(C)C2=O)c1 (stereo not shown) [Compound 63, 3,4-Dihydro-2-[5-methoxy-2-[4-(N-methylcyclohexylamino)butoxy]phenyl]-4-methyl-3-oxo-2H-1,4-benzothiazine oxalate] | 3.2
23 | COc1ccc(OCCCN2CCN(CC(=O)c3ccccc3)CC2)c(C2Sc3ccccc3NC2=O)c1 (stereo not shown) [Compound 76] | 3.2

System: not listed separately
Assay: Acute toxicity test, oral
Conditions: mouse, in vivo, orally, male ddy-SLC mice
Procedure: Male ddy-SLC strain mice (4 weeks of age, weighing 19-21 g) were placed in a breeding room of constant temperature and huminity (23±1° C., 55±5%) and fed freely pellet diet and water ad. libitum for a week. Mice showing normal growth were selected for the test. (method of administration)
Test compounds are suspended in 0.5% tragacanth suspention and administered orally in a dose of 0.5 ml/20 g body weight.

Row | SMILES | LD50 [mg/kg]
24 | COc1ccc(OCCCN2CCN(CCc3cc(OC)c(OC)c(OC)c3)CC2)c(C2Sc3ccccc3N(C)C2=O)c1 (stereo not shown) [Compound 77] | > 1280
25 | CN1C(=O)C(c2ccc(OCCCN(C)C3CCCCC3)cc2)Sc2ccccc21 (stereo not shown) [Compound 73] | 500 to 1000
